Results taken from patent US20240398771A1, “TREATMENT OF SCLERODERMA AND RAYNAUD'S SYNDROME” (Aisa Pharma, Inc., priority 2023, published 2024).

Assays:
Type in all cases: in vivo, human
[1] = system: participants with SSc-RP; experiment: Average duration of weekly symptomatic RP attacks (minutes); settings: ITT Part A
Excerpt: The relevant metrics measured by this tool daily are: • Study medication • SSc-RP symptoms (Reporting an attack including duration of attack) • Severity of the attack considering all symptoms of the attack e.g. tingling, numbness, pain, color changes (VAS 0-10 cm scale) • Participant's location at the time of the attack (inside home/outside home) • Selecting symptoms experienced during the attack (tingling, numbness, pain, color changes, other) • Pain rating during the attack (11-point Likert scale) • The RCS based on how much difficulty participants had with Raynaud's today, how many attacks the participant had, and how long they lasted. Participants will also be asked to consider how much pain, numbness, or other symptoms the Raynaud's caused in fingers (including painful sores), and how much the Raynaud's alone affected the use of hands today (VAS 0-10 cm scale).
The absolute change in average duration of weekly RP attacks from baseline to the end of each dosing period was and will be a secondary outcome variable. The sponsor-developed participant-informed diary was and will be used to record data. Average duration of weekly RP attacks is defined as the total duration of RP attacks divided by total number of RP attacks within the last 7 days of each dosing period. Total duration of RP attacks during the last 7 days of screening period divided by the total number of RP attacks will be used as baseline for the analysis of all periods. The variable will be calculated similar to frequency data as before.

[2] = system: participants with SSc-RP; experiment: SHAQ Visual Analog Scale - Intestinal Problems; settings: Tadalafil 5 mg; Modified ITT, Part A
Protocol: (§1) Results: Patients in the study were administered the Scleroderma Health Assessment Questionnaire (SHAQ) at the time of study entry and during clinic visits following the treatment period. The study is a two-part, parallel arm design, prospective, double-blind, randomized study conducted in Australia (Flinders Medical Center). 27 patients were randomized into the first phase of the study, following which a DSMB meeting was held, which reviewed data on the primary study endpoint and key Raynaud's secondary endpoints. Data on the SHAQ was not available for the DSMB to review. The mITT population, in which any data was available post treatment was 24 patients was the analysis population for this first part of the study. The second part (i.e., part B) of the study will randomize 36 patients in a double blind, randomized, prospective, placebo controlled, crossover study. In the first part (i.e., Part A) of the study for which data is presented, patients were randomized into 6 groups, cilnidipine at two doses (10 and 20 mg) alone and in combination with tadalafil 5 mg, tadalafil 5 mg alone, and placebo. […] The DSMB recommended that the study proceed into its double blind prospective cross overpowered second phase and compare cilnidipine 20 mg alone to placebo. […] Cilnidipine treatment may reduce patient-reported SSc disease disability compared to placebo • b. Cilnidipine treatment may reduce patient-reported SSc disease alternative disability compared to placebo • c. Cilnidipine treatment may reduce patient-reported SSc disease pain* compared to placebo • d. Cilnidipine treatment may reduce patient-reported SSc disease severity compared to placebo • e. Cilnidipine treatment may reduce patient-reported SSc disease skin ulcer severity rating compared to placebo • f Cilnidipine treatment may reduce patient-reported SSc disease breathing difficulty compared to placebo • g. […] SSc disease pain comprises not only pain from Raynaud's but joint pain, headache, odynophagia, back pain, pain from skin ulceration, and neuropathic pain). Table E includes results of the Scleroderma Health Assessment Questionnaire.

[3] = system: participants with SSc-RP; experiment: SHAQ Visual Analog Scale - Finger Ulcers; design: Finger Ulcers, Baseline, Mean / Finger Ulcers, Baseline, Median / Finger Ulcers, Change from Baseline, Mean / Finger Ulcers, Change from Baseline, Median: scale not given here; settings: Tadalafil 5 mg; Modified ITT, Part A
Protocol: as §1

[4] = Excluding Outliers, Baseline RCS subgroup 2 (second half of Table B-4, stratum not given), last 7 days of dosing period
[5] = Excluding Outliers, Baseline RCS subgroup 2 (second half of Table B-4, stratum not given), last 7 days of screening period
[6] = Baseline RCS subgroup 2 (Table B-3, stratum not given), last 7 days of dosing period
[7] = Baseline RCS subgroup 2 (Table B-3, stratum not given), last 7 days of screening period

Structure (SMILES): CN1CC(=O)N2[C@H](c3ccc4c(c3)OCO4)c3[nH]c4ccccc4c3C[C@@H]2C1=O [Tadalafil]
- Average Duration of weekly symptomatic RP attacks, Max [1, 4]: 6.0, 6.0 minutes
- Average Duration of weekly symptomatic RP attacks, Mean [1, 4]: 6.00 min
- Average Duration of weekly symptomatic RP attacks, Median [1, 4]: 6.00 min
- Average Duration of weekly symptomatic RP attacks, Min [1, 4]: 6.0, 6.0 minutes
- Average Duration of weekly symptomatic RP attacks, Q1 [1, 4]: 6.00, 6.00 minutes
- Average Duration of weekly symptomatic RP attacks, Q3 [1, 4]: 6.00, 6.00 minutes
- Average duration of weekly symptomatic RP attacks, Change from Baseline, Max [1, 4]: −4.6, −4.6 minutes
- Average duration of weekly symptomatic RP attacks, Change from Baseline, Mean [1, 4]: -4.58 min
- Average duration of weekly symptomatic RP attacks, Change from Baseline, Min [1, 4]: −4.6, −4.6 minutes
- Average duration of weekly symptomatic RP attacks, Change from Baseline, Q3 [1, 4]: −4.58, −4.58 minutes
- Average duration of weekly symptomatic RP attacks, Percent Change from Baseline, Max [1, 4]: −43.3, −43.3%
- Average duration of weekly symptomatic RP attacks, Percent Change from Baseline, Mean [1, 4]: −43.31%
- Average duration of weekly symptomatic RP attacks, Percent Change from Baseline, Min [1, 4]: −43.3, −43.3%
- Average duration of weekly symptomatic RP attacks, Percent Change from Baseline, Q3 [1, 4]: −43.31, −43.31%
- Average duration of weekly symptomatic RP attacks, Baseline, Max [1, 5]: 10.6, 10.6 minutes
- Average duration of weekly symptomatic RP attacks, Baseline, Mean [1, 5]: 10.58 min
- Average duration of weekly symptomatic RP attacks, Baseline, Median [1, 5]: 10.58 min
- Average duration of weekly symptomatic RP attacks, Baseline, Min [1, 5]: 10.6, 10.6 minutes
- Average duration of weekly symptomatic RP attacks, Baseline, Q1 [1, 5]: 10.58, 10.58 minutes
- Average duration of weekly symptomatic RP attacks, Baseline, Q3 [1, 5]: 10.58, 10.58 minutes
- Average Duration of weekly symptomatic RP attacks [1, 6]: 6.0 min
- Average Duration of weekly symptomatic RP attacks, Max [1, 6]: 818.6 min
- Average Duration of weekly symptomatic RP attacks, Q1 [1, 6]: 6.00 min
- Average Duration of weekly symptomatic RP attacks, Q3 [1, 6]: 818.57 min
- Average duration of weekly symptomatic RP attacks, Change from Baseline [1, 6]: -4.6 min
- Average duration of weekly symptomatic RP attacks, Change from Baseline, Max [1, 6]: 286.1 min
- Average duration of weekly symptomatic RP attacks, Change from Baseline, Q1 [1, 6]: -4.58 min
- Average duration of weekly symptomatic RP attacks, Change from Baseline, Q3 [1, 6]: 286.07 min
- Average duration of weekly symptomatic RP attacks, Percent Change from Baseline, Max [1, 6]: 53.7%
- Average duration of weekly symptomatic RP attacks, Percent Change from Baseline, Min [1, 6]: −43.3%
- Average duration of weekly symptomatic RP attacks, Percent Change from Baseline, Q1 [1, 6]: −43.31%
- Average duration of weekly symptomatic RP attacks, Percent Change from Baseline, Q3 [1, 6]: 53.72%
- Average duration of weekly symptomatic RP attacks, Baseline [1, 7]: 10.6 min
- Average duration of weekly symptomatic RP attacks, Baseline, Max [1, 7]: 532.5 min
- Average duration of weekly symptomatic RP attacks, Baseline, Mean [1, 7]: 271.54 min
- Average duration of weekly symptomatic RP attacks, Baseline, Median [1, 7]: 271.54 min
- Average duration of weekly symptomatic RP attacks, Baseline, Q1 [1, 7]: 10.58 min
- Average duration of weekly symptomatic RP attacks, Baseline, Q3 [1, 7]: 532.50 min
- Visual Analog Scale-Intestinal Problems, Baseline, Mean [2]: 0.925
- Visual Analog Scale-Intestinal Problems, Baseline, Median [2]: 0.950
- Visual Analog Scale-Intestinal Problems, Change from Baseline, Mean [2]: −0.250
- Visual Analog Scale-Intestinal Problems, Change from Baseline, Median [2]: −0.150
- Visual Analog Scale-Intestinal Problems, In Clinic Visit (Day 12), Mean [2]: 1.175
- Visual Analog Scale-Intestinal Problems, In Clinic Visit (Day 12), Median [2]: 0.100
- Visual Analog Scale-Intestinal Problems, Percent Change from Baseline, Mean [2]: −2.55%
- Visual Analog Scale-Intestinal Problems, Percent Change from Baseline, Median [2]: −88.89%
- Finger Ulcers, Baseline, Mean [3]: 2.125
- Finger Ulcers, Baseline, Median [3]: 0.050
- Finger Ulcers, Change from Baseline, Mean [3]: −0.967
- Finger Ulcers, Change from Baseline, Median [3]: −0.100
- Finger Ulcers, In Clinic Visit (Day 12), Mean [3]: 1.867
- Finger Ulcers, In Clinic Visit (Day 12), Median [3]: 0.000
- Finger Ulcers, Percent Change from Baseline, Mean [3]: −66.67%
- Finger Ulcers, Percent Change from Baseline, Median [3]: −66.67%
